# In patent US8927717B1, “Thiochromeno[2,3-c]quinolin-12-one derivatives, preparation method and application thereof” (National Defense Medical Center, priority 2014, dated 2015):
# Tests used:
# Assay type in all cases: cell-based
# [1] = test system: HT29
# [2] = test system: COLO 205
# [3] = test system: SW-620
# [4] = test system: HCT-15
# [5] = test system: M14
# [6] = test system: UACC-62
# [7] = test system: LOX IMVI
# [8] = test system: DU-145
# [9] = test system: SK-MEL-5
# [10] = test system: KM12; test: cells
# [11] = test system: SNB-19
# [12] = test system: NCI-H460
# [13] = test system: MDA-MB-435
# [14] = test system: OVCAR-8
# [15] = test system: NCI/ADR-RES
# [16] = test system: MCF7
# [17] = test system: T-47D; details: Breast cancer; 10^−5 molar; 48 hours; SRB
# [18] = test system: RXF 393
# [19] = test system: CCRF-CEM
# [20] = test system: MOLT-4; details: Homo sapiens; MOLT-4; five dose
# [21] = Colon cancer, 10^−5 molar, 48 hours, SRB
# [22] = Homo sapiens, HT-29, HT29, five dose
# [23] = Homo sapiens, COLO 205, five dose
# [24] = Homo sapiens, SW-620, five dose
# [25] = Homo sapiens, HCT-15, five dose
# [26] = Melanoma, 10^−5 molar, 48 hours, SRB
# [27] = Homo sapiens, LOX IMVI, five dose
# [28] = Homo sapiens, SK-MEL-5, five dose
# [29] = Homo sapiens, SNB-19, five dose
# [30] = Homo sapiens, NCI-H460, five dose
# [31] = Ovarian cancer, 10^−5 molar, 48 hours, SRB
smiles,measurement,setting,value
"CN(C)CCNc1nc2ccccc2c2c(=O)c3cc(Cl)ccc3sc12 [Compound N7, 10-Chloro-6-((2-(dimethylamino)ethyl)amino)-12H-thiochromeno[2,3-c]quinolin-12-one]",Growth percent HT29,[1]; [21],−84.24%
same,TGI,"[1]; HT29, five dose",3.36 µM
same,GI50,[1]; [22],1.65 µM
same,LC50 (concentration killing 50% of cells),[1]; [22],6.88 µM
same,TGI,"[2]; COLO 205, five dose",3.17 µM
same,Growth percent COLO 205,[2]; [21],−82.85%
same,GI50,[2]; [23],1.66 µM
same,LC50,[2]; [23],6.05 µM
same,Growth percent SW-620,[3]; [21],−67.82%
same,GI50,[3]; [24],1.71 µM
same,LC50,[3]; [24],6.36 µM
same,TGI,"[3]; SW-620, five dose",3.29 µM
same,Growth percent HCT-15,[4]; [21],−30.05%
same,TGI,"[4]; HCT-15, five dose",3.14 µM
same,GI50,[4]; [25],1.59 µM
same,LC50,[4]; [25],6.21 µM
same,GI50,"[5]; Homo sapiens, M14, five dose",1.85 µM
same,LC50,"[5]; Homo sapiens, M14, five dose",6.4 µM
same,TGI,"[5]; M14, five dose",3.44 µM
same,Growth percent M14,[5]; [26],−92.77%
same,GI50,"[6]; Homo sapiens, UACC-62, five dose",1.7 µM
same,CC50,"[6]; Homo sapiens, UACC-62, five dose, read-out: LC50 (the source's name)",5.88 µM
same,Growth percent UACC-62,[6]; [26],−76.58%
same,TGI,"[6]; UACC-62, five dose",3.16 µM
same,GI50,[7]; [27],1.68 µM
same,LC50,[7]; [27],6.24 µM
same,TGI,"[7]; LOX IMVI, five dose",3.24 µM
same,Growth percent LOX IMVI,[7]; [26],−84.12%
same,TGI,"[8]; DU-145, five dose",3.34 µM
same,GI50,"[8]; Homo sapiens, DU-145, five dose",1.87 µM
same,CC50,"[8]; Homo sapiens, DU-145, five dose, read-out: LC50 (the source's name)",5.99 µM
same,Growth percent DU-145,"[8]; Prostate cancer, 10^−5 molar, 48 hours, SRB",−80.85%
same,GI50,[9]; [28],1.57 µM
same,LC50,[9]; [28],8.21 µM
same,Growth percent SK-MEL-5,[9]; [26],18.83%
same,TGI,"[9]; SK-MEL-5, five dose",3.59 µM
same,Growth percent KM12,[10]; [21],−77.07%
same,GI50,"[10]; Homo sapiens, KM12, five dose",1.78 µM
same,LC50,"[10]; Homo sapiens, KM12, five dose",6.03 µM
same,TGI,"[10]; KM12, five dose",3.28 µM
same,Growth percent SNB-19,"[11]; CNS cancer, 10^−5 molar, 48 hours, SRB",55.44%
same,GI50,[11]; [29],1.54 µM
same,LC50 (concentration killing 50% of cells),[11]; [29],6.1 µM
same,TGI,"[11]; SNB-19, five dose",3.07 µM
same,GI50,[12]; [30],1.76 µM
same,LC50,[12]; [30],6.5 µM
same,TGI,"[12]; NCI-H460, five dose",3.38 µM
same,Growth percent NCI-H460,"[12]; Non-small cell lung cancer, 10^−5 molar, 48 hours, SRB",−71.14%
same,GI50,"[13]; Homo sapiens, MDA-MB-435, five dose",1.71 µM
same,CC50,"[13]; Homo sapiens, MDA-MB-435, five dose, read-out: LC50 (the source's name)",6.05 µM
same,TGI,"[13]; MDA-MB-435, five dose",3.22 µM
same,Growth percent MDA-MB-435,[13]; [26],−64.64%
same,GI50,"[14]; Homo sapiens, OVCAR-8, five dose",1.64 µM
same,CC50,"[14]; Homo sapiens, OVCAR-8, five dose, read-out: LC50 (the source's name)",6.06 µM
same,TGI,"[14]; OVCAR-8, five dose",3.15 µM
same,Growth percent OVCAR-8,[14]; [31],1.22%
same,GI50,"[15]; Homo sapiens, NCI/ADR-RES, five dose",1.67 µM
same,CC50,"[15]; Homo sapiens, NCI/ADR-RES, five dose, read-out: LC50 (the source's name)",6 µM
same,TGI,"[15]; NCI/ADR-RES, five dose",3.17 µM
same,Growth percent NCI/ADR-RES,[15]; [31],23.00%
same,Growth percent MCF7 (Table 2: MCF),"[16]; Breast cancer, 10^−5 molar, 48 hours, SRB",−85.41%
same,GI50,"[16]; Homo sapiens, MCF7, five dose",1.23 µM
same,CC50,"[16]; Homo sapiens, MCF7, five dose, read-out: LC50 (the source's name)",5.71 µM
same,TGI,"[16]; MCF7, five dose",2.66 µM
same,Growth percent T-47D,[17],26.06%
same,GI50,"[18]; Homo sapiens, RXF 393, five dose",1.6 µM
same,CC50,"[18]; Homo sapiens, RXF 393, five dose, read-out: LC50 (the source's name)",7.29 µM
same,TGI,"[18]; RXF 393, five dose",3.41 µM
same,Growth percent RXF 393,"[18]; Renal cancer, 10^−5 molar, 48 hours, SRB",−15.29%
same,TGI,"[19]; CCRF-CEM, five dose",3.41 µM
same,GI50,"[19]; Homo sapiens, CCRF-CEM, five dose",1.63 µM
same,CC50,"[19]; Homo sapiens, CCRF-CEM, five dose, read-out: LC50 (the source's name)",7.15 µM
same,Growth percent CCRF-CEM,"[19]; Leukemia, 10^−5 molar, 48 hours, SRB",−53.54%
same,GI50,[20],1.71 µM
